The values below come from patent US20180353445A1, “METHODS AND COMPOSITIONS RELATING TO PROTEASOME INHIBITOR RESISTANCE” (Whitehead Institute for Biomedical Research, priority 2017, published 2018).

Entries after “also recorded” stand apart in the source; their conditions may differ.

Format in all cases: cell-based, human
Test [1] concerns T47D cells with doxycycline inducible PSMD2 KD (Lo19S) versus control cells. Kind of test: Lo19S T47D drug screen (PSMD2 KD versus control cells, CellTiter-Glo). The settings on record: T47D, Lo19S state by dox-inducible PSMD2 shRNA; compound library screen; 72 h; CellTiter-Glo. The protocol: The effect of each drug on viability of cells was calculated by averaging the duplicate experiments. The data is plotted in FIG. 16 as the log2 of the ratio of viability of PSMD2 KD versus control cells (log2 (shPSMD2/Control)). […] The Selleck natural product library (NPC) comprising 502 compounds in 5 doses and the. NIH bioactive compound library that includes 731 compounds in 4 doses were also screened using the same system.
A deeper understanding of the proteasome inhibitor resistant state could yield insights into the molecular mechanisms activated by cells to cope with proteotoxic stress and elucidate new therapeutic strategies for cancer. With these goals in mind, we screened mechanistically diverse small molecule libraries to identify compound sensitivities altered by the Lo19S and Hi-OXPHOS states. An initial screen was conducted in the isogenic T47D model with transient induction of the Lo19S state as described above, We evaluated >4300 mechanistically well-defined compounds within 4 libraries. The compounds included approved cancer drugs (Selleck anti-cancer library: CDL), common natural products (Natural product library: NPC) and an ^-NIH bioactives library (NIH). Each of these compounds was tested at ≥4 concentrations. (Table S5, data not shown), An additional 2866 compounds from the Boston University's Chemical Methodology and Library Development (CMLD-BU) small molecule collection was screened at a single dose (BULL, see Table S5).
Generation of the Lo19S T47D cell line—For the generation of the T47D Tet-inducible PSMD2 knockdown cell line—the TRIPZ vector with an inducible shRNA targeting PSMD2 was purchased from Dharmacon (clone V3THS_403760). It was introduced to the T47D cells according to manufactures protocol and cells were selected with puromycin […] for one week. The cells were exposed to doxycycline for 24 hours and cells were FACS sorted for the top 10% of most RFP expressing cells (highest expression of shRNA). The cells were further cultured in the absence of doxycycline and PSMD2 knockdown was induced as specified in the text.
After 48 hours the cells were collected counted and plated (in the absence of dox) at 1000 cells/well in 384-well opaque, white assay plates (Coming, NY), 50 uL per well, and incubated overnight at 37° C./5% CO2. Compound stocks from the Cancer drug library containing 349 bioactive compounds that were arrayed in dose 10 nM, 100 nM, 1 uM, 10 uM (Selleck anti-cancer compound library L3000), the natural products library containing 502 compounds that were utilized in 5 doses (dilution of 1:1000 of 2ug/ml, 0.2 ug/ml, 0.002/ug/ml, 0.0002 ug/ml), the NIH bioactive library including 731 drugs in dose of 10 nM, 100 nM, 1 uM, 10 uM and the Boston University's CMLD (Chemical Methodology and Library Development) compound deck containing 2866 compounds in one dose (10 uM), including novel chemotypes that uniquely probe three-dimensional space by employing stereochemical and positional variation within the molecular framework as diversity elements in library design. 50 nl of compounds were pin-transferred (V&P Scientific, CA, pin tool mounted onto Tecan Freedom Evo 150 MCA96 head, Tecan, Calif.) into duplicate assay plates and incubated for 72 h. The DMSO content was 0.1% within each well, Per plate, there are 32 wells of DMSO vehicle control and 32 wells of positive control compounds. After three days of incubation, 10 uL of CellTiter-Glo (Promega, Wis.) was added to each well, incubated for 10 minutes and the luminescence output was read on the M1000 Infinite Pro plate reader (Tecan, Calif.).

In test [2] the test system is IMR32 (reduced PSMD5) and Kelly neuroblastoma cells. Kind of test: Viability of IMR32 versus Kelly neuroblastoma cells (CellTiter-Glo). The conditions noted are these: for sensitivity of IMR32 cells relative to Kelly cells (fold viability): 72 hours after addition, CellTiter-Glo. Here is the method: To determine whether these compounds also differentially affect cells with reduced expression of PSDMS, IMR32 and Kelly cells were each cultured in the presence of ABT-263, disulfiram, or elesclomol across a range of concentrations. Cell viability was measured by CellTiter-Glo® Luminescent Cell Viability Assay 72 hours after addition of the compound to cells. The fold viability relative to culture in the absence of the compound was determined for each cell line. […] In the experiment shown in FIG. 24, the lowest lower concentration of ABT-263 and disulfiram tested was 1 uM.
ABT-263 targets several members of the BCL2 family, including BCL2 and BCL-XL.

For a further test, the system named is T47D cells. Kind of test: Drug library screen (Selleck anti-cancer, NPC, NIH bioactive), PSMD2 KD vs control T47D cells. The conditions noted are these: for growth inhibition of T47D cells with reduced level of PSMD2 vs control T47D cells: Selleck anti-cancer compound library screen. Here is the method: Schematic representation of the drug screen setup. (FIG. 37A) 147D cells harboring a doxycycline-inducible PSMD2 shRNA were grown in the presence or absence of doxycycline for 48 hr. Cells were then collected, washed, and plated in the absence of doxycycline for 24 hr prior to exposure different compounds. Relative cell numbers were measured 3 days later.
The relative viability of the Lo19S versus control cells was calculated for replica experiments and the log2 of the ratio is plotted. […] The relative viability of the respiring cells (Hi-OXPHOS) (gal) versus the control cells (glu) was calculated for replica experiments and the log2 of the ratio is plotted.
After 48 hours the cells were collected, counted, and plated at 1000 cells/well in 384 well plates in duplicates for each cell line. Compounds from the Selleck Chemicals anti-cancer compound library (349 drugs in 4 concentrations; […]) were pinned the next day and viability was measured after 72 hours by the reduction of Resazurin (Ex=530 run, Em=590nin). (See FIG. 37A for schematic of screen.)

For the compound `CC1(C)CCC(c2ccc(Cl)cc2)=C(CN2CCN(c3ccc(C(=O)NS(=O)(=O)c4ccc(N[C@H](CCN5CCOCC5)CSc5ccccc5)c(S(=O)(=O)C(F)(F)F)c4)cc3)CC2)C1` [ABT-263, navitoclax], the “viability of PSMD2 KD versus control cells (log2 (shPSMD2/Control))” value in test [1] is listed as “selectively reduce the viability of PSMD2 KD cells versus control cells; also recorded: selectively sensitized cells”. Further, the “sensitivity of IMR32 cells relative to Kelly cells (fold viability)” value in test [2] is listed as “dramatically more sensitive; also recorded: significantly more sensitive”. The “preferential sensitivity of IMR32 versus Kelly cells, compared among BCL2 family inhibitors” value in test [2] (ABT-263 versus more specific BCL2, BCL-XL and MCL-1 inhibitors) is “much greater for ABT-263”. The “effect of reintroduction (forced expression) of the PSMD5 subunit in IMR32 cells on sensitivity” value in test [2] (IMR32 cells, PSMD5 epigenetically suppressed) is “did not significantly alter”. Besides, in the test on T47D cells, the “sensitivity of proteasome inhibitor resistant cancer cells vs sensitive counterpart cells” value is listed as “highly sensitive” and the “growth inhibition of T47D cells with reduced level of PSMD2 vs control T47D cells” value is given as “selectively inhibits growth”.

In the case of `CC(C)C[C@H](NC(=O)[C@H](Cc1ccccc1)NC(=O)c1cnccn1)B(O)O` [bortezomib], the “viability of PSMD2 KD versus control cells (log2 (shPSMD2/Control))” value in test [1] is recorded as “selectively reduce viability of control cells versus PSMD2 KD cells”. Also, the “sensitivity of IMR32 cells relative to Kelly cells (fold viability)” value in test [2] is on record as “increased resistance”.

For `CN(NC(=O)CC(=O)NN(C)C(=S)c1ccccc1)C(=S)c1ccccc1` [elesclomol], in test [1], the “viability of PSMD2 KD versus control cells (log2 (shPSMD2/Control))” value is reported as “selectively reduce the viability of PSMD2 KD cells versus control cells; also recorded: selectively sensitized cells; also recorded: highly effective in slowing the growth of cells in the Lo19S state”. For the same compound, the “sensitivity of IMR32 cells relative to Kelly cells (fold viability)” value in test [2] is reported as “dramatically more sensitive”. Further, in the test with T47D cells, the “sensitivity of proteasome inhibitor resistant cancer cells vs sensitive counterpart cells” value is listed as “highly sensitive” and the “growth inhibition of T47D cells with reduced level of PSMD2 vs control T47D cells” value was “selectively inhibit growth”.
